Data reported in the supplement of paper PMC10307832.

Key:
Assay in all cases: relative viability (nuclei count vs DMSO), 5 days (fraction); higher = more cells survive
Tosedostat + Bortezomib = compound: CC(C)C[C@@H](C(=O)N[C@H](C(=O)OC1CCCC1)c1ccccc1)[C@H](O)C(=O)NO [Tosedostat] + CC(C)C[C@H](NC(=O)[C@H](Cc1ccccc1)NC(=O)c1cnccn1)B(O)O [Bortezomib] (partner 0.002 µM)
Method in brief: (§1)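 A single step with final 0.05% Triton X-100, 1% formaldehyde and 1 ug/ml Hoechst fixed the cells and stained nuclei 5 days after treatment. Lung cancer cell lines in 1536-well plates had been treated by pin tool the day after seeding with one drug alone or a fixed anchor-drug dose plus five library-drug doses (not always all listed) in √10 steps, and nuclei were counted on 4× images. Relative viability is the ratio of nuclei in treated wells to nuclei in vehicle wells, taken as the median of duplicate plates.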

[1] = compound: CC1=NN=C(O1)C2=NN=C(C=C2)N3CCC(CC3)OC4=C(C=CC(=C4)F)Cl + Cc1nc(Nc2ncc(C(=O)Nc3c(C)cccc3Cl)s2)cc(N2CCN(CCO)CC2)n1 [Dasatinib] (partner 0.075 µM)
Method in brief: as §1

Tosedostat + Linsitinib = compound: CC(C)C[C@@H](C(=O)N[C@H](C(=O)OC1CCCC1)c1ccccc1)[C@H](O)C(=O)NO [Tosedostat] + C[C@]1(O)C[C@@H](c2nc(-c3ccc4ccc(-c5ccccc5)nc4c3)c3c(N)nccn32)C1 [Linsitinib] (partner 1 µM)
Method in brief: as §1

[2] = compound: CC1=NN=C(O1)C2=NN=C(C=C2)N3CCC(CC3)OC4=C(C=CC(=C4)F)Cl + CC(=O)c1c(C)c2cnc(Nc3ccc(N4CCNCC4)cn3)nc2n(C2CCCC2)c1=O [Palbociclib] (partner 0.5 µM)
Method in brief: as §1

| Cell Line | relative viability (Tosedostat + Bortezomib; first compound 0.02 µM) | relative viability (Tosedostat + Bortezomib; first compound 0.06325 µM) | relative viability (Tosedostat + Bortezomib; first compound 0.2 µM) | relative viability (Tosedostat + Bortezomib; first compound 0.6325 µM) | relative viability (Tosedostat + Bortezomib; first compound 2 µM) | relative viability ([1]; first compound 0.253 µM) | relative viability ([1]; first compound 0.8 µM) | relative viability ([1]; first compound 2.53 µM) | relative viability ([1]; first compound 8 µM) | relative viability (Tosedostat + Linsitinib; first compound 0.02 µM) | relative viability (Tosedostat + Linsitinib; first compound 0.06325 µM) | relative viability (Tosedostat + Linsitinib; first compound 0.2 µM) | relative viability (Tosedostat + Linsitinib; first compound 0.6325 µM) | relative viability (Tosedostat + Linsitinib; first compound 2 µM) | relative viability ([2]; first compound 0.253 µM) | relative viability ([2]; first compound 0.8 µM) | relative viability ([2]; first compound 2.53 µM) | relative viability ([2]; first compound 8 µM) |
| --- | --- | --- | --- | --- | --- | --- | --- | --- | --- | --- | --- | --- | --- | --- | --- | --- | --- | --- |
| LXF-289 | 1.05 | 0.992 | 0.974 | 0.978 | 0.989 | 0.209 | 0.234 | 0.195 | 0.227 | 1.02 | 0.879 | 1.02 | 0.946 | 0.994 | 0.524 | 0.549 | 0.531 | 0.458 |
| NCI-H23 | 1.11 | 0.959 | 0.846 | 0.687 | 0.463 | 0.622 | – | 0.79 | 0.71 | 0.612 | 0.56 | 0.548 | 0.474 | 0.416 | 0.44 | 0.442 | 0.466 | 0.454 |
| NCI-H322M | 1.36 | 0.853 | 1.2 | 1.1 | 1.08 | 0.255 | 0.315 | 0.268 | 0.29 | 0.8 | 0.902 | 0.894 | 0.877 | 0.839 | 0.471 | 0.509 | 0.469 | 0.492 |
| NCI-H441 | 0.471 | 0.396 | 0.332 | 0.396 | 0.404 | 0.566 | 0.492 | 0.664 | 0.493 | 0.487 | 0.544 | 0.473 | 0.402 | 0.403 | 0.206 | 0.257 | 0.282 | 0.217 |
| NCI-H460 | 1.14 | 0.898 | 1.09 | 0.926 | 1.32 | 0.175 | 0.185 | 0.214 | 0.193 | 0.845 | 0.84 | 0.857 | 0.849 | 0.942 | 0.0613 | 0.0812 | 0.0833 | 0.0883 |
| NCI-H520 | 0.348 | 0.519 | 0.508 | 0.449 | 0.76 | 0.258 | – | 0.211 | 0.222 | 1.13 | 0.962 | 0.944 | 1.02 | 1.06 | 0.247 | 0.258 | 0.263 | 0.251 |
| NCI-H647 | 1.03 | 0.947 | 0.788 | 1.07 | 0.829 | 0.196 | 0.222 | 0.207 | 0.178 | 1.07 | 1.2 | 1.01 | 1.12 | 1.24 | 0.168 | 0.201 | 0.155 | 0.0745 |
| NCI-H650 | 0.958 | 0.894 | 0.562 | 0.685 | 0.504 | 0.496 | 0.436 | 0.419 | 0.445 | 0.853 | 0.84 | 0.679 | 0.656 | 0.494 | 0.323 | 0.318 | 0.32 | 0.314 |
| NCI-H661 | 0.846 | 0.69 | 0.894 | 0.63 | 0.768 | 0.785 | 0.608 | – | 0.68 | 0.552 | 0.592 | 0.555 | 0.494 | 0.495 | 0.354 | 0.38 | 0.355 | 0.302 |
| NCI-H727 | 0.884 | 0.771 | 0.804 | 0.613 | 0.613 | 0.328 | – | 0.441 | 0.384 | 0.264 | 0.266 | 0.272 | 0.168 | 0.322 | 0.672 | 0.708 | 0.718 | 0.596 |
| NCI-H838 | 0.82 | 0.852 | 0.646 | 0.918 | 1.1 | 0.299 | 0.32 | 0.301 | 0.331 | 1.09 | 0.982 | 1.02 | 1.08 | 1.31 | 0.192 | 0.24 | 0.222 | 0.196 |
| NCI-H1355 | 1.2 | 1.14 | 1.09 | 0.987 | 1.07 | 0.314 | 0.526 | 0.781 | 0.585 | 0.717 | 0.839 | 0.762 | 0.701 | 0.726 | 0.25 | 0.359 | 0.353 | 0.353 |
| NCI-H1437 | 0.465 | 0.512 | 0.488 | 0.524 | 0.324 | 0.584 | 0.279 | 0.418 | 0.268 | 1.12 | 1.03 | 1 | 0.752 | 0.66 | 0.22 | 0.233 | 0.268 | 0.168 |
| NCI-H1651 | 0.973 | 1.03 | 0.834 | 0.834 | 0.914 | 0.406 | 0.394 | 0.335 | 0.374 | 0.996 | 0.963 | 1.11 | 0.875 | 0.863 | 0.337 | 0.387 | 0.331 | 0.346 |
| NCI-H1666 | 0.753 | 0.849 | 0.766 | 0.735 | 0.698 | 0.612 | 0.526 | 0.58 | 0.543 | 0.864 | 0.815 | 0.805 | 0.818 | 0.989 | 0.632 | 0.684 | 0.651 | 0.627 |
| NCI-H1734 | 1.07 | 0.942 | 0.907 | 0.89 | 0.786 | 0.496 | 0.417 | 0.477 | 0.401 | 0.902 | 0.989 | 0.867 | 0.913 | 0.827 | 0.344 | 0.334 | 0.345 | 0.324 |
| NCI-H1755 | 0.963 | 0.896 | 0.928 | 0.887 | 0.845 | 0.36 | 0.438 | 0.406 | 0.373 | 0.942 | 1.02 | 0.985 | 0.965 | 0.939 | 0.334 | 0.451 | 0.464 | 0.4 |
| NCI-H1792 | 1.01 | 0.991 | 0.934 | 0.952 | 1 | 0.578 | 0.714 | 0.78 | 0.707 | 0.553 | 0.578 | 0.496 | 0.548 | 0.636 | 0.358 | 0.502 | 0.449 | 0.474 |
